Laboratory results from paper PMC6906431, “Selective small molecule PARG inhibitor causes replication fork stalling and cancer cell death” (Nature Communications, 2019).
Where “and” joins values, the source holds several entries; their conditions need not be identical. Equal entries are not always repeated.

Test system: PC3 cells
Assay: Immunoblot of HMW/LMW PARP1 in chromatin fractions
Assay type: cell-based, human
Settings: normalized to DMSO = 1, IR 7 Gy, replicates
Method: To identify suitable cell lines to test PARGi, we evaluated PARG protein expression patterns on a panel of prototypic cancer cell lines. Cells were fractionated into cytoplasmic, nuclear and chromatin, and then PARG expression and localization were evaluated using an anti-PARG antibody (Fig. 4a). A varying level of PARG was detected in three cellular compartments. In prostate adenocarcinoma (PC3) and breast mammary epithelial (MCF-7) cells, PARG level was the highest in the cytoplasm, followed by the nucleus, with the lowest seen in the chromatin fraction. […] The PC3 cell line, with one of the highest levels of PARG expression, was selected for our initial PARGi testing. PC3 cells were treated with either DMSO or JA2131 for 2 h, then exposed to 7 Gy of IR and allowed to recover for a designated time period before harvesting and cell fractionation. Chromatin fractions of the cell lysates were analyzed by immunoblotting with PARP1 specific antibody (Fig. 4b), and the PARylation states of PARP1 were monitored as a marker for PARG inhibition. […] In these cells, PARylated PARP1 in response to PARG inhibition appeared as a discrete HMW (DHMW) proteins with limited smearing, as observed previously. […] To assess whether DHMW was due to PARylation and not any other post-translational modifications, chromatin fractions of the PARGi-treated PC3 cell-lysates were treated with purified PARG, followed by anti-PARP1 western blotting. This led to the restoration of LMW PARP1, indicating PARylation was indeed causing the DHMW (Fig. 4c, d). Thus, a dynamic equilibrium between DHMW and LMW nuclear PARP1 exists in cells, and PARGi shifts this equilibrium towards DHMW.
Fig. 4 JA2131 induces hyperPARylation of PARP1. a Subcellular PARG protein expression patterns in cultured cells. […] Chromatin bound cell-extracts were analyzed with anti-PARP1 antibody (upper panel) followed by probing with total Histone H2AX (t-H2AX, lower panel) as the loading control. c DMSO or 2131-treated PC3 cells were irradiated and recovered for 2 h as above, chromatin fractions were then incubated with or without purified PARG enzyme (±PARG) for 30 min at 37 °C then immunoblotted with anti-PARP1 (upper panel) and then with anti-histone H3 (lower panel) as loading control. d Quantitative analysis of western blot of b, where expression of PARP1 levels in DMSO treated was normalized to 1. […]

[1] = chromatin fraction incubated with purified PARG (+)

**Q.** What does the source list for `Cn1c(=S)c2[nH]c(SCCN3CCOCC3)nc2n(C)c1=O` [JA2131]?
**A.** HMW PARP1 [1]: 0.2746 and 0.8185 and 0.3259; LMW PARP1 [1]: 1.147 and 1.092 (2×); HMW PARP1 (without added purified PARG): 0.6751 and 1.387 and 4.419; LMW PARP1 (without added purified PARG): 0.7041 and 0.9592 (2×)
